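Exposure lasted 48 hours, with cells grown in 96-well plates and compounds tested at five concentrations. The concentration for full growth arrest is given as TGI.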
Assays:
Assay in all cases: inhibition of tumour cell growth, NCI panel, 48 h
[1] = tested on: SK-OV-3 ovarian
[2] = tested on: NCI-H522 lung
[3] = tested on: SK-MEL-5 melanoma
[4] = tested on: SN12C renal
[5] = tested on: SW-620 colon
[6] = tested on: K-562 leukemia
[7] = tested on: U251 CNS
[8] = tested on: HCT-116 colon
[9] = tested on: SF-295 CNS
[10] = tested on: HOP-92 NSCLC
[11] = tested on: CCRF-CEM leukemia
[12] = tested on: MALME-3M melanoma
[13] = tested on: MDA-N
[14] = tested on: M14 melanoma
[15] = tested on: SNB-75 CNS
[16] = tested on: MDA-MB-231 breast
[17] = tested on: EKVX NSCLC
[18] = tested on: SK-MEL-2 melanoma
[19] = tested on: T-47D breast
[20] = tested on: HCC-2998 colon
[21] = tested on: 786-0 renal
[22] = tested on: SR leukemia
[23] = tested on: NCI-H23 lung
[24] = tested on: LOX IMVI melanoma
[25] = tested on: UO-31 renal
[26] = tested on: IGROV1 ovarian
[27] = tested on: NCI/ADR-RES ovarian
[28] = tested on: MCF7 breast
[29] = tested on: SNB-19 CNS
[30] = tested on: HS 578T breast
[31] = tested on: SF-268 CNS
[32] = tested on: HCT-15 colon
[33] = tested on: OVCAR-4 ovarian
[34] = tested on: RPMI-8226 leukemia
[35] = tested on: OVCAR-5 ovarian
[36] = tested on: UACC-62 melanoma
[37] = tested on: UACC-257 melanoma
[38] = tested on: A498 renal
[39] = tested on: COLO 205 colon
[40] = tested on: CAKI-1 renal
[41] = tested on: SF-539 CNS
[42] = tested on: SK-MEL-28 melanoma
[43] = tested on: OVCAR-3 ovarian
[44] = tested on: NCI-H226 lung
[45] = tested on: HT29 colon
[46] = tested on: DU-145 prostate
[47] = tested on: HL-60(TB) leukemia
[48] = tested on: RXF 393 renal
[49] = tested on: MOLT-4 leukemia
[50] = tested on: BT-549 breast
[51] = tested on: A549 NSCLC
[52] = tested on: KM12 colon
[53] = tested on: NCI-H460 lung
[54] = tested on: HOP-62 NSCLC
[55] = tested on: MDA-MB-435
[56] = tested on: TK-10 renal
[57] = tested on: ACHN renal
[58] = tested on: PC-3 prostate
[59] = tested on: OVCAR-8 ovarian

`O=C1C(Br)=Cc2c(Cl)sc(Cl)c21` showed a TGI [1] of 35.8 µM, a TGI [2] of 11.7 µM and a TGI [3] of over 53.7 µM. It also gave a TGI [4] of 18.4 µM, a TGI [5] of 12.9 µM and a TGI [6] of 13.6 µM. The TGI [7] was 7.53 µM, the TGI [8] was 6.25 µM and the TGI [9] was over 66.4 µM. It also gave a TGI [10] of 7 µM, a TGI [11] of over 100 µM and a TGI [12] of 29 µM. For the same compound, the TGI [13] was 8.7 µM, the TGI [14] was 26.7 µM and the TGI [15] was 30.4 µM. It also gave a TGI [16] of 8.91 µM, a TGI [17] of 22.2 µM and a TGI [18] of 32.3 µM. The TGI [19] was 7.58 µM, the TGI [20] was 7.71 µM and the TGI [21] was 5.09 µM. It also gave a TGI [22] of 15.5 µM, a TGI [23] of 30.6 µM and a TGI [24] of 5.84 µM. It also gave a TGI [25] of 9.14 µM, a TGI [26] of 7.67 µM and a TGI [27] of over 100 µM. The TGI [28] was 11.5 µM, the TGI [29] was 50.7 µM and the TGI [30] was over 93.8 µM. The TGI [31] was over 28 µM, the TGI [32] was 18.6 µM and the TGI [33] was 8.81 µM. It also gave a TGI [34] of 2.98 µM, a TGI [35] of 36 µM and a TGI [36] of 27.2 µM. For the same compound, the TGI [37] was over 28.5 µM, the TGI [38] was 52.1 µM and the TGI [39] was 23.6 µM. For the same compound, the TGI [40] was 8.99 µM, the TGI [41] was 15.1 µM and the TGI [42] was 41.3 µM. For the same compound, the TGI [43] was 12.1 µM, the TGI [44] was over 100 µM and the TGI [45] was 27.3 µM. It also gave a TGI [46] of 18 µM, a TGI [47] of 6.3 µM and a TGI [48] of 6.17 µM. For the same compound, the TGI [49] was 2.08 µM, the TGI [50] was 88.4 µM and the TGI [51] was over 72.9 µM. The TGI [52] was 20.3 µM, the TGI [53] was 53.3 µM and the TGI [54] was 28.6 µM. For the same compound, the TGI [55] was 5.43 µM, the TGI [56] was 5.23 µM and the TGI [57] was 9.83 µM. It also gave a TGI [58] of 6.83 µM and a TGI [59] of 33.3 µM.
With `Cc1cccc(C[C@@]2(SCc3ccccc3)C(C)(C)[C@@H]3CC[C@@]2(C)C3)n1` the TGI [1] was 51.4 µM, the TGI [2] was 29.1 µM and the TGI [3] was 29.4 µM. For the same compound, the TGI [4] was 31.5 µM, the TGI [5] was 30.5 µM and the TGI [6] was 28.9 µM. The TGI [7] was 30.2 µM, the TGI [8] was 31.9 µM and the TGI [9] was 29.1 µM. The TGI [10] was 27.6 µM, the TGI [11] was 27.6 µM and the TGI [12] was 33 µM. It also gave a TGI [13] of 60.2 µM, a TGI [14] of 46.2 µM and a TGI [15] of 34.4 µM. The TGI [16] was 28.5 µM, the TGI [17] was 40.2 µM and the TGI [18] was 27.8 µM. For the same compound, the TGI [19] was 24.9 µM, the TGI [20] was 28.8 µM and the TGI [21] was 35.5 µM. It also gave a TGI [22] of 31.9 µM, a TGI [23] of 31.4 µM and a TGI [24] of 30.2 µM. The TGI [25] was 37.2 µM, the TGI [26] was 28.7 µM and the TGI [27] was 30.2 µM. For the same compound, the TGI [28] was 26.8 µM, the TGI [29] was 33.1 µM and the TGI [30] was 49.1 µM. For the same compound, the TGI [31] was 29.5 µM, the TGI [32] was 26.8 µM and the TGI [34] was 30.5 µM. The TGI [35] was 34.9 µM, the TGI [36] was 35.5 µM and the TGI [37] was 29.9 µM. For the same compound, the TGI [38] was 28.6 µM, the TGI [39] was 29 µM and the TGI [40] was 48.1 µM. It also gave a TGI [41] of 55.1 µM, a TGI [42] of 45.3 µM and a TGI [43] of 29.5 µM. It also gave a TGI [45] of 31.9 µM, a TGI [46] of 32.2 µM and a TGI [47] of 29.7 µM. It also gave a TGI [48] of 30.9 µM, a TGI [49] of 27.3 µM and a TGI [50] of 42.6 µM. For the same compound, the TGI [51] was 51.1 µM, the TGI [52] was 36.9 µM and the TGI [53] was 31.3 µM. It also gave a TGI [54] of 60.2 µM, a TGI [55] of 78.3 µM and a TGI [56] of 34.5 µM. It also gave a TGI [57] of 28.8 µM, a TGI [58] of 35.7 µM and a TGI [59] of 30 µM.
